# Source: ChEMBL document CHEMBL4393659, “Insights into the chemistry and therapeutic potential of furanones: A versatile pharmacophore” (Eur J Med Chem, 2019)
# Key:
# Rattus norvegicus [1] = organism: Rattus norvegicus; test: Antiarthritic activity in adjuvant-induced Sprague-Dawley rat; assay type: functional
# Rattus norvegicus [2] = test: Antiinflammatory activity in Sprague-Dawley rat assessed as inhibition of carrageenan-induced paw edema at 3 mg/kg , po relative to control; assay type: functional
# Rattus norvegicus [3] = test: Antiinflammatory activity in Wistar rat assessed as inhibition of carrageenan-induced edema measured upto 4 hrs; assay type: functional
# Rattus norvegicus [4] = test: Antiinflammatory activity in albino rat assessed as inhibition of carrageenan-induced paw edema by measuring mercury displacement at 20 mg/kg , po relative to control; assay type: functional
# Rattus norvegicus [5] = test: Antiinflammatory activity in po dosed rat; assay type: functional
# [6] = Acute toxicity in Swiss albino mouse assessed as reduction in mortality of animal at 200 to 800 mg/kg , ip observed for 8 days; assay type: organism-based; settings: in vivo
# Escherichia coli [7] = test: Antibacterial activity against Escherichia coli; assay type: functional
# Staphylococcus aureus = test: Antibacterial activity against Staphylococcus aureus; assay type: functional
# [8] = target: GABA-A receptor; alpha-1/beta-2/gamma-2 (Homo sapiens) (UniProt P14867+P47870+P18507); test: Positive allosteric modulation of recombinant GABAA alpha1beta2gamma2 (unknown origin) expressed in Xenopus laevis oocytes assessed as increase GABA-stimulated current amplitude at 200 uM by electrophysiological two-electrode voltage clamp method; assay type: cell-based
# Candida albicans = test: Antifungal activity against Candida albicans ATCC 90028 assessed as reduction in fungal cell viability measured after 24 and 48 hrs by spectrophotometry; assay type: functional
# Mus musculus [9] = test: Analgesic activity in Swiss albino mouse assessed as inhibition of acetic acid induced writhing at 20 mg/kg , po incubated for 3 hrs followed by acetic acid administered and observed for 5 to 15 mins relative to control; assay type: functional
# Rattus norvegicus [10] = test: Antiinflammatory activity in Wistar albino rat assessed as inhibition of carrageenan-induced paw edema at 20 mg/kg , po incubated for 30 mins followed by carrageenan addition and measured after 3 hrs by plethysmometry relative to control; assay type: functional
# A549 = test: Cytotoxicity against human A549 cells assessed as reduction in cell viability incubated for 48 hrs by SRB method; assay type: functional; settings: A549, 48 h, read-out: ED50 (the source's name)
# NIH3T3 = test: Cytotoxicity against mouse NIH/3T3 cells assessed as reduction in cell viability incubated for 48 hrs by SRB method; assay type: functional; settings: NIH3T3, 48 h, read-out: ED50 (the source's name)
# SK-OV-3 = test: Cytotoxicity against human SKOV3 cells assessed as reduction in cell viability incubated for 48 hrs by SRB method; assay type: functional; settings: SK-OV-3, 48 h, read-out: ED50 (the source's name)
# [11] = Ulcerogenicity in Sprague-Dawley rat assessed as gastric lesions at 30 mg/kg , po measured after 4 hrs; assay type: toxicity, organism-based; settings: in vivo
# Rattus norvegicus [12] = test: Antiinflammatory activity in Sprague-Dawley rat assessed as inhibition of carrageenan-induced paw edema at 3 mg/kg , po incubated for 1 hr followed by carrageenan addition and measured after 4 hrs relative to control; assay type: functional
# [13] = target: GABA-A receptor; anion channel; test: Displacement of [35S]TBPS from GABAA (unknown origin) incubated for 90 mins by scintillation counting method; assay type: protein-complex assay, Homo sapiens
# Mus musculus [14] = test: Anticonvulsant activity in ip dosed CF-1 mouse assessed as protection against PTZ-induced seizures measured after 30 mins […]; assay type: functional
# Salmonella typhimurium = test: Inhibition of biofilm formation in Salmonella enterica subsp. enterica serovar Typhimurium 14028S incubated for 48 hrs by crystal violet staining based assay; assay type: functional, organism-based
# Escherichia coli [15] = test: Antibacterial activity against Escherichia coli assessed as inhibition zone incubated for 24 hrs by disk diffusion method relative to control; assay type: functional
# Rattus norvegicus [16] = test: Antiinflammatory activity in po dosed Sprague-Dawley rat assessed as inhibition of carrageenan-induced paw edema incubated for one hour followed by carrageenan addition and measured after 3 hrs; assay type: functional
# Plasmodium falciparum = test: Antimalarial activity against Plasmodium falciparum infected in human blood assessed as reduction in cell viability incubated for 72 hrs by Giemsa stain based assay; assay type: functional
structure (smiles),measurement,setting,value
CC1(C)OC(c2ccc(S(C)(=O)=O)cc2)=C(c2cccc(C(F)(F)F)c2)C1=O,ED50,Rattus norvegicus [1],0.06 mg/kg/day
same,inhibition in vivo at 3 mg/kg,Rattus norvegicus [2],32%
O=C1OC(c2ccc(-c3ccccc3)cc2)=C/C1=C\c1cc2ccc([N+](=O)[O-])cc2nc1Cl,inhibition (INH),Rattus norvegicus [3],56 - 63%
COc1cc(/C=C2/C=C(c3ccc(C)cc3)OC2=O)cc(OC)c1OC,inhibition in vivo at 20 mg/kg,Rattus norvegicus [4],45.2%
CC1(O)OC(=O)C(c2ccccc2)=C1c1ccc(S(C)(=O)=O)cc1 (stereo unspecified),ED50,Rattus norvegicus [5],1.5 mg/kg
O=C1O[C@H]([C@@H](O)CO)C(O)=C1O [ASCORBIC ACID],LD50 at 192 h,[6],> 800 mg/kg
Cc1ccc(-c2cc(C(F)(F)F)nn2-c2ccc(S(N)(=O)=O)cc2)cc1 [CELECOXIB],ED50,Rattus norvegicus [1],0.2 mg/kg/day
C/C(C#N)=C1/OC(c2ccc(C)cc2)=C(Cl)C1=O,MIC,Escherichia coli [7],62.5 µg/mL
same,MIC,Staphylococcus aureus,15.6 µg/mL
Cc1ccc2cc(/C=C3\C=C(c4ccc5ccccc5c4)OC3=O)c(Cl)nc2c1,inhibition (INH),Rattus norvegicus [3],56 - 63%
O=C1OC(c2ccc(-c3ccccc3)cc2)=C/C1=C\c1cc2ccccc2nc1Cl,inhibition (INH),Rattus norvegicus [3],56 - 63%
C=CCOC(=O)NC1COC(=O)C1(CCC)CCC (stereo unspecified),Activity,[8],420%
CC(=O)OCC1C=C(c2cccc(Cl)c2)C(=O)O1 (stereo unspecified),MIC,Candida albicans,1 µg/mL
COc1ccc(/C=C2\C=C(c3ccc4ccccc4c3)OC2=O)cc1,inhibition in vivo at 20 mg/kg,Mus musculus [9],70 to 74%
same,inhibition in vivo at 20 mg/kg,Rattus norvegicus [10],74.8 to 89.7%
CC(=O)OCC1C=C(c2ccc(Br)cc2)C(=O)O1 (stereo unspecified),MIC,Candida albicans,0.5 µg/mL
O=C1OC(c2ccc3ccccc3c2)=C/C1=C\c1ccccc1[N+](=O)[O-],inhibition in vivo at 20 mg/kg,Mus musculus [9],70 to 74%
same,inhibition in vivo at 20 mg/kg,Rattus norvegicus [10],74.8 to 89.7%
COc1cc(/C=C2\C=CC(=O)O2)c(OC)c2c1C(=O)c1ccccc1C2=O,EC50,A549,9.2 to 16.5 µg/mL
same,EC50,NIH3T3,9.2 to 16.5 µg/mL
same,EC50,SK-OV-3,9.2 to 16.5 µg/mL
CC1(C)OC(c2ccc(S(C)(=O)=O)cc2)=C(c2cc(F)cc(F)c2)C1=O,UI,[11],1.8
same,inhibition in vivo at 3 mg/kg,Rattus norvegicus [12],34%
same,ED50,Rattus norvegicus [1],0.03 mg/kg/day
same,inhibition in vivo at 3 mg/kg,Rattus norvegicus [2],34%
O=C1OC(c2ccc3ccccc3c2)=C/C1=C\c1cc2ccc(Cl)cc2nc1Cl,inhibition (INH),Rattus norvegicus [3],56 - 63%
CC1(CC(F)(F)F)COC(=O)C1 (stereo unspecified),IC50,[13],8 µM
same,CD50,Mus musculus [14],3 mg/kg
CC1(O)OC(=O)C(c2ccc(Cl)cc2)=C1c1ccc(S(C)(=O)=O)cc1 (stereo unspecified),ED50,Rattus norvegicus [5],1.4 mg/kg
O=C1C=CC(=C(Br)Br)O1,IC50,Salmonella typhimurium,15 µM
O=C1C(Br)=C(c2ccccc2)O/C1=N\C12CC3CC(CC(C3)C1)C2,MIC,Escherichia coli [7],15.6 µg/mL
O=C1C=C(Br)/C(=C/Br)O1,IC50,Salmonella typhimurium,10 µM
COc1ccc(C2=C/C(=C/c3ccc(F)cc3)C(=O)O2)cc1,inhibition zone (IZ),Escherichia coli [15],14 mm
COc1cc(/C=C2/C=C(c3ccc(C)cc3C)OC2=O)cc(OC)c1OC,inhibition in vivo at 20 mg/kg,Rattus norvegicus [4],48.4%
O=C1C=C/C(=C/Br)O1,IC50,Salmonella typhimurium,15 µM
CC1(C)OC(=O)C(Oc2ccc(Br)cn2)=C1c1ccc(S(C)(=O)=O)cc1,ED50,Rattus norvegicus [1],0.2 mg/kg
same,ED50,Rattus norvegicus [16],0.86 mg/kg
CCC1=C(Br)/C(=C/Br)OC1=O,IC50,Salmonella typhimurium,50 µM
O=C1OC(c2ccc(-c3ccccc3)cc2)=C/C1=C\c1cc2ccc(Cl)cc2nc1Cl,inhibition (INH),Rattus norvegicus [3],56 - 63%
COc1cccc2cc(/C=C3/CC(c4ccc(Cl)cc4)OC3=O)c(Cl)nc12 (stereo unspecified),MIC,Plasmodium falciparum,0.5 to 0.72 µg/mL
CCCC1(CCC)C(=O)OCC1NC(=O)OCC (stereo unspecified),Activity,[8],426%
